{"source": "PubChem BioAssay AID1259408", "about": "(Genetic Toxicology Data Bank (GENE-TOX), 2018)", "tested_on": "GENE-TOX genotoxicity assays, various organisms and cells", "experiment": "GENE-TOX mutagenicity studies", "key": {"[1]": {"conditions": "Species/Cell Type: Mammalian polychromatic erythrocytes, Assay Type: Micronucleus test, chromosome aberrations, Assay Code: MNTT, Evaluation Type: Evaluation A (Pre-1980)"}, "[2]": {"conditions": "Species/Cell Type: Nonhuman, Assay Type: Sister-chromatid exchange (SCE) in vitro, Assay Code: SC2+, Evaluation Type: Evaluation B (Post-1980)"}, "[3]": {"conditions": "Species/Cell Type: Syrian hamster embryo (SHE) cells, Assay Type: Cell transformation, clonal assay, Assay Code: CTC-, Evaluation Type: Evaluation A (Pre-1980)"}, "[4]": {"conditions": "Species/Cell Type: Salmonella typhimurium (one or more of the five standard strains: TA98, TA100, TA1535, TA1537, and TA1538), Assay Type: Histidine reverse gene mutation, Ames assay, Assay Code: SAL+*, Activation: With metabolic activation, Evaluation Type: Evaluation A (Pre-1980)"}, "[5]": {"conditions": "Species/Cell Type: Mammalian polychromatic erythrocytes, Assay Type: Micronucleus test, chromosome aberrations, Assay Code: MNTT, Evaluation Type: Evaluation B (Post-1980)"}, "[6]": {"conditions": "Species/Cell Type: Salmonella typhimurium (one or more of the five standard strains: TA98, TA100, TA1535, TA1537, and TA1538), Assay Type: Histidine reverse gene mutation, Ames assay, Assay Code: SAL+, Evaluation Type: Evaluation A (Pre-1980)"}}, "note": "The source made the active and inactive calls. No rule for the calls is given here."}
{"molecule": "CN(C)C=O", "values": [{"measurement": "mutagenic call", "setting": "[1]", "value": "no conclusion"}, {"measurement": "mutagenic call", "setting": "Species/Cell Type: Mouse, Sex: Male, Assay Type: Sperm morphology, Assay Code: SPI-, Evaluation Type: Evaluation A (Pre-1980)", "value": "inactive; negative"}, {"measurement": "mutagenic call", "setting": "[2]", "value": "active; positive"}, {"measurement": "mutagenic call", "setting": "Species/Cell Type: Rat primary hepatocytes, Assay Type: Unscheduled DNA synthesis (UDS) in vitro, DNA effects, Assay Code: UDP-, Evaluation Type: Evaluation A (Pre-1980)", "value": "inactive; negative"}, {"measurement": "mutagenic call", "setting": "[3]", "value": "inactive; negative"}]}
{"molecule": "CCCCN(CC(=O)CC)N=O", "values": [{"measurement": "mutagenic call", "setting": "[4]", "value": "active; positive"}]}
{"molecule": "CC(C)NCC(O)c1ccc(NS(C)(=O)=O)cc1", "note": "(configuration not stated)", "values": [{"measurement": "mutagenic call", "setting": "[5]", "value": "no conclusion"}]}
{"molecule": "COc1ccc(N2CCN(c3ccc([N+](=O)[O-])c4no[n+]([O-])c34)CC2)cc1", "values": [{"measurement": "mutagenic call", "setting": "[6]", "value": "active; positive"}]}
{"molecule": "CN(C)S(=O)(=O)N(SC(F)(Cl)Cl)c1ccccc1", "values": [{"measurement": "mutagenic call", "setting": "Species/Cell Type: Bacillus subtilis (H17 vs M45), Assay Type: Rec-assay, spot test, DNA effects (bacterial DNA repair), Assay Code: REWT, Evaluation Type: Evaluation A (Pre-1980)", "value": "no conclusion"}, {"measurement": "mutagenic call", "setting": "Species/Cell Type: Saccharomyces cerevisiae, Assay Type: Mitotic recombination or gene conversion, Assay Code: YEC-, Evaluation Type: Evaluation A (Pre-1980)", "value": "inactive; negative"}]}
{"molecule": "COC(=O)N/N=C/c1c[n+]([O-])c2ccccc2[n+]1[O-]", "values": [{"measurement": "mutagenic call", "setting": "Species/Cell Type: Mammalian polychromatic erythrocytes, Assay Type: Micronucleus test, chromosome aberrations, Assay Code: MNT+, Evaluation Type: Evaluation B (Post-1980)", "value": "active; positive"}]}
{"molecule": "O=[N+]([O-])c1ccc(-c2cscn2)o1", "values": [{"measurement": "mutagenic call", "setting": "Species/Cell Type: Bacillus subtilis (H17 vs M45), Assay Type: Rec-assay, spot test, DNA effects (bacterial DNA repair), Assay Code: REW+, Evaluation Type: Evaluation A (Pre-1980)", "value": "active; positive"}, {"measurement": "call", "setting": "Species/Cell Type: Nonhuman, Assay Type: In vivo carcinogenicity studies, Assay Code: CCG+L, Evaluation Type: Evaluation A (Pre-1980)", "value": "active; positive"}, {"measurement": "mutagenic call", "setting": "[6]", "value": "active; positive"}, {"measurement": "mutagenic call", "setting": "[3]", "value": "inactive; negative"}]}
{"molecule": "Nc1cc([N+](=O)[O-])ccc1O", "values": [{"measurement": "mutagenic call", "setting": "[1]", "value": "no conclusion"}, {"measurement": "mutagenic call", "setting": "Species/Cell Type: Neurospora crassa, Assay Type: Aneuploidy, chromosome aberrations, Assay Code: NEN-, Evaluation Type: Evaluation A (Pre-1980)", "value": "inactive; negative"}, {"measurement": "mutagenic call", "setting": "Species/Cell Type: Rodents, Sex: Male, Assay Type: Dominant lethal test, Assay Code: DLT-, Evaluation Type: Evaluation A (Pre-1980)", "value": "inactive; negative"}]}
{"molecule": "Cc1ccc(N)cc1O", "values": [{"measurement": "mutagenic call", "setting": "[1]", "value": "no conclusion"}]}
{"molecule": "CN1CCC=C(C(=O)O)C1", "values": [{"measurement": "mutagenic call", "setting": "[5]", "value": "no conclusion"}]}
{"molecule": "O=[N+]([O-])c1ccc(N2CCN(c3ccccc3)CC2)c2c1no[n+]2[O-]", "values": [{"measurement": "mutagenic call", "setting": "[6]", "value": "active; positive"}]}
{"molecule": "Cc1cc(/C=C/c2ccc3cc(N(C)C)ccc3[n+]2C)c(C)n1-c1ccccc1", "values": [{"measurement": "mutagenic call", "setting": "[2]", "value": "active; positive"}, {"measurement": "mutagenic call", "setting": "[4]", "value": "active; positive"}]}
{"molecule": "CN=C(N)N", "values": [{"measurement": "mutagenic call", "setting": "Species/Cell Type: Human diploid fibroblasts, Assay Type: Unscheduled DNA synthesis (UDS) in vitro, DNA effects, Assay Code: UDH-, Evaluation Type: Evaluation A (Pre-1980)", "value": "inactive; negative"}]}
{"molecule": "O=c1[nH]cc(Br)c(=O)[nH]1", "values": [{"measurement": "mutagenic call", "setting": "Species/Cell Type: Hordeum vulgare (barley), Assay Type: Gene mutation, Assay Code: HOM+D, Dose Response: With dose response, Evaluation Type: Evaluation A (Pre-1980)", "value": "active; positive"}, {"measurement": "mutagenic call", "setting": "Species/Cell Type: Saccharomyces cerevisiae, Assay Type: Mitotic recombination or gene conversion, Assay Code: YEH-, Evaluation Type: Evaluation A (Pre-1980)", "value": "inactive; negative"}, {"measurement": "mutagenic call", "setting": "Species/Cell Type: Vicia faba, Assay Type: Chromosome aberrations, Assay Code: VIC+, Evaluation Type: Evaluation A (Pre-1980)", "value": "active; positive"}]}
